The values that follow are results of earlier work, collected in patent US12533348B2, “Ferroportin-inhibitors for the use in the treatment of transfusion-dependent beta-thalassemia (TDT)” (Vifor (International) AG, priority 2019, dated 2026).

In the series the test system is guinea pigs. Particulars: intravenous administration, cited from earlier work.

As to `O=C(NCc1ncccc1F)c1csc(CCNCc2nc3ccccc3[nH]2)n1` [VIT-2653], for the setting “guinea pigs”, the “NTBI and Hb levels following exchange transfusion” value is “significantly improved”; the “total iron in kidneys following transfusion” value was “can be reduced”. In addition, where the note is “transfused guinea pigs”, the “occurrence of changes in plasma creatinine >0.3 mg/dL (indicator of early AKI)” value is recorded as “significantly reduced”.
